The values that follow come from patent publication US20250011288A1 (BRISTOL-MYERS SQUIBB COMPANY, priority 2021, published 2025).

The test concerns the target T1, human RXFP1 (Homo sapiens, UniProt Q9HBX9).
T1 construct: expressed in transfected cells
T1 sequence (Q9HBX9 1-757): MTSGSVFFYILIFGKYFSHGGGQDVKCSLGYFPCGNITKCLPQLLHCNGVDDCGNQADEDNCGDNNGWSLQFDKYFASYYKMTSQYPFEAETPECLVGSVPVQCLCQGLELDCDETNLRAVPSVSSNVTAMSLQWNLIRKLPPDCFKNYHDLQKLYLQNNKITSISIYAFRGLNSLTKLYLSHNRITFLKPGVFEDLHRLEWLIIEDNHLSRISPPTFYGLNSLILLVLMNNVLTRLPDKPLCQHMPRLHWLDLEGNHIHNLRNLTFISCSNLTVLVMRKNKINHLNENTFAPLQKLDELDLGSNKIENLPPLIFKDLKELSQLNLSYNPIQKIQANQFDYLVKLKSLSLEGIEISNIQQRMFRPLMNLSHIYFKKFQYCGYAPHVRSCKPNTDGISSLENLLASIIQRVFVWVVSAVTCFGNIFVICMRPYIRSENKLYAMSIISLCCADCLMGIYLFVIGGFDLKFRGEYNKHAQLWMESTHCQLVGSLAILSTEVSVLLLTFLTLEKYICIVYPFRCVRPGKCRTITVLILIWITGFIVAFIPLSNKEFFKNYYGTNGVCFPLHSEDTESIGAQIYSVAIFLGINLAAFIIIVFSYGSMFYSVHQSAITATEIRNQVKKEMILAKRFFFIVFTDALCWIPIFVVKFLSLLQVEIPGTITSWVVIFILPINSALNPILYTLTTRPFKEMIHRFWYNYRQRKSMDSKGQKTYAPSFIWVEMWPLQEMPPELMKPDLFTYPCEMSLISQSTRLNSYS
Put plainly: human RXFP1 (hRXFP1) HEK293 cAMP assay (HTRF). The format is cell-based. The note with it: HEK293 cells stably expressing human RXFP1, 30 min at room temperature. Here is the method: RXFP1 Cyclic Adenosine Monophosphate (cAMP) Assays. […] Cells were dissociated and suspended in assay buffer. The assay buffer was HBSS buffer (with calcium and magnesium) containing 20 mM HEPES, 0.05% BSA, and 0.5 mM IBMX. Cells (3000 cells per well, except 1500 cell per well for HEK293 cells stably expressing human RXFP1) were added to 384-well Proxiplates (Perkin-Elmer). Cells were immediately treated with test compounds in DMSO (2% final) at final concentrations in the range of 0.010 nM to 50 µM. Cells were incubated for 30 min at room temperature. The level of intracellular cAMP was determined using the HTRF HiRange cAMP assay reagent kit (Cisbio) according to manufacturer's instructions. Solutions of cryptate conjugated anti-cAMP and d2 fluorophore-labelled cAMP were made in a supplied lysis buffer separately. Upon completion of the reaction, the cells were lysed with equal volume of the d2-cAMP solution and anti-cAMP solution. […] The potency and activity of a compound to […] cAMP production was then determined by fitting to a 4-parametric logistic equation from a plot of cAMP level versus compound concentrations.
Background: cAMP levels reflect the balance of adenylyl cyclase and phosphodiesterase activity.

As to `COc1cnc(-c2cc(C(=O)O)ccc2F)nc1C(=O)N[C@@H]1C2CCC(/C2=C/C(F)(F)F)[C@@H]1C(=O)Nc1ccc(F)c(C(F)(F)F)c1` (stereo partly drawn) [Example 32, 4-Fluoro-3-(4-{[(2R,3S,7Z)-3-{[4-fluoro-3-(trifluoromethyl)phenyl]carbamoyl}-7-(2,2,2-trifluoroethylidene)bicyclo[2. 2.1]heptan-2-yl]carbamoyl}-5-methoxypyrimidin-2-yl)benzoic acid], the EC50 turned out to be 166 nM.

`O=C(O)c1cccc(C2=NOC(C(=O)N[C@@H]3C4CCC(/C4=C/C(F)(F)F)[C@@H]3C(=O)Nc3ccc(F)c(C(F)(F)F)c3)C2)c1` (stereo partly drawn) [Example 33, 3-(5-{[(2R,3S,7Z)-3-{[4-fluoro-3-(trifluoromethyl)phenyl]carbamoyl}-7-(2,2,2-trifluoroethylidene)bicyclo[2.2.1]heptan-2-yl]carbamoyl}-4,5-dihydro-1,2-oxazol-3-yl)benzoic acid] registered an EC50 of 4400 nM.

Consider `COc1ncc(-c2cc([C@H](O)C(F)(F)F)ccc2F)nc1C(=O)N[C@@H]1C2CCC(/C2=C/C(F)(F)F)[C@@H]1C(=O)Nc1ccc(F)c(C(F)(F)F)c1` (stereo partly drawn) [Example 34, N-[(2R,3S,7Z)-3-{[4-fluoro-3-(trifluoromethyl)phenyl]carbamoyl}-7-(2,2,2-trifluoroethylidene)bicyclo[2.2.1]heptan-2-yl]-6-{2-fluoro-5-[(1S)-2,2,2-trifluoro-1-hydroxyethyl]phenyl}-3-methoxypyrazine-2-carboxamide], for which a half-maximal response (EC50) required 3000 nM.

In turn, `COc1ncc(-c2cc([C@H](OC(=O)Nc3ccccc3)C(F)(F)F)ccc2F)nc1C(=O)N[C@@H]1C2CCC(/C2=C/C(F)(F)F)[C@@H]1C(=O)Nc1ccc(F)c(C(F)(F)F)c1` (stereo partly drawn) [Example 35, (1S)-2,2,2-trifluoro-1-[4-fluoro-3-(6-{[(2R,3S,7Z)-3-{[4-fluoro-3-(trifluoromethyl)phenyl]carbamoyl}-7-(2,2,2-trifluoroethylidene)bicyclo[2.2.1]heptan-2-yl]carbamoyl}-5-methoxypyrazine-2-yl)phenyl]ethyl N-phenylcarbamate] showed an EC50 of 42 nM.

In turn, `COc1cnc(-c2cc([C@H](OC(=O)Nc3ccccc3)C(F)(F)F)ccc2F)nc1C(=O)N[C@@H]1C2CCC(/C2=C/C(F)(F)F)[C@@H]1C(=O)Nc1ccc(F)c(C(F)(F)F)c1` (stereo partly drawn) [Example 36, (1S)-2.2,2-trifluoro-1-[4-fluoro-3-(4-{[(2R,3S,7Z)-3-{[4-fluoro-3-(trifluoromethyl)phenyl]carbamoyl}-7-(2,2,2-trifluoroethylidene)bicyclo[2. 2.1]heptan-2-yl]carbamoyl}-5-methoxypyrimidin-2-yl)phenyl]ethyl N-phenylcarbamate] had an EC50 of 63 nM.

Consider `COc1cnc(-c2cc([C@H](OC(=O)NC3CCC3)C(F)(F)F)ccc2F)nc1C(=O)N[C@@H]1C2CCC(/C2=C/C(F)(F)F)[C@@H]1C(=O)Nc1ccc(F)c(C(F)(F)F)c1` (stereo partly drawn) [Example 37, (1S)-2,2,2-trifluoro-1-14-fluoro-3-(4-{[(2R,3S,7Z)-3-{[4-fluoro-3-(trifluoromethyl)phenyl]carbamoyl}-7-(2,2,2-trifluoroethylidene)bicyclo[2.2.1]heptan-2-yl]carbamoyl}-5-methoxypyrimidin-2-yl)phenyl]ethyl N-cyclobutylcarbamate], for which the EC50 came to 95 nM.

In turn, `COc1cnc(-c2cc([C@H](OC(=O)Nc3ccccc3)C(F)(F)F)ccc2F)cc1C(=O)N[C@@H]1C2CCC(/C2=C/C(F)(F)F)[C@@H]1C(=O)Nc1ccc(F)c(C(F)(F)F)c1` (stereo partly drawn) [Example 38, (1S)-2,2,2-trifluoro-1-14-fluoro-3-(4-{[(2R,3S,7Z)-3-{[4-fluoro-3-(trifluoromethyl)phenyl]carbamoyl}-7-(2.2,2-trifluoroethylidene)bicyclo[2.2.1]heptan-2-yl]carbamoyl}-5-methoxypyridin-2-yl)phenyl]ethyl N-phenylcarbamate] displayed an EC50 of 63 nM.

For orientation: EC50 means the concentration needed to bring the measured effect to its halfway point. A high value points to weaker potency.
